According to patent EP3822285A1, “VARIANT NISIN PEPTIDES” (University College Cork-National University of Ireland, Cork, priority 2019, dated 2021):
Converted amounts (≈) assume the structure as drawn. Marks after values point to notes of the source that are not given here.

What was measured:
Format in all cases: cell-based
[1] = system: L. lactis HP; assay: Deferred antagonism assay; settings: producing strain
Description: (§1) Mutagenesis of the nisA gene was carried out as described previously (Field et al., 2008). Briefly, saturation mutagenesis was carried out using pDF05 (pCI372-nisA) as template and using oligonucleotides containing an NNK codon in place of each native codon. PCR amplification was performed in a 50 µl reaction containing approximately 0.5 ng of target DNA (pDF05), 1 unit Phusion High-Fidelity DNA polymerase (Finnzymes, Finland), 1 mM dNTPs and 500 ng each of the appropriate forward and reverse oligonucleotide. The reaction was pre-heated at 98°C for 2 min, and then incubated for 29 cycles at 98°C for 30 s, 55°C for 15 s and 72°C for 3 min 30 s, and then finished by incubating at 72°C for 3 min 30 s. Amplified products were treated with Dpn1 (Stratagene) for 60 min at 37°C to digest template DNA and purified using the QIAquick PCR purification kit. Following transformation of E. coli Top 10 cells plasmid DNA was isolated and sequenced using primers pCI372FOR (5' […] 3') and pCI372REV (5' […] 3') to verify that mutagenesis had taken place. Approximately 150 transformants were chosen at random for each position and inoculated into 96-well plates containing GM17 chloramphenicol, incubated overnight and stored at -20°C after addition of 80% glycerol. Deferred antagonism assays were performed by replicating strains on GM17 agar plates and allowing them to grow overnight before overlaying with BHI agar (0.75% w/v agar) seeded with the appropriate indicator strain.
(§2) Previously, site-saturation mutagenesis-based strategies were used to generate strains producing bioengineered nisin derivatives in which all residues not involved in lanthionine ring formation (i.e. I1, T2, 14, S5, L6, P9, G10, K12, G14, A15, L16, M17, G18, N20, M21, K22, A24, H27, S29 130, H31, V32, S33 and K34) were each randomised to potentially all other natural amino acids, or whereby all three residues of the hinge-region (NMK) were randomised simultaneously (Rouse et al., 2012, Healy et al., 2013, Field et al., 2008). […] From this screen 76 variants of interest from the first round of screening were incorporated into a "mini-bank" for subsequent further analysis. The number of indicator strains was increased from five to thirteen to include S. uberis 43382, S. uberis DPC5344, S. dysgalactiae ATCC43078, L. lactis 303, L. cremoris KH, Lactobacillus bulgaricus NCDO2489, Lb. helveticus 2079 and Lb. acidophilus ATCC4356 (Table 1). Following this second round of screening, 6 variants of interest were deemed worthy of closer inspection. DNA sequencing of the mutated nisin gene as well as mass spectrometric analysis of the peptide produced by each strain established that these corresponded to nisin M17Q (methionine at position 17 altered to glutamine), nisin T2L (threonine 2 leucine) nisin HTK, VGA, VGV or VGT (where the hinge residues Asn-Met-Lys have been altered to His-Thr-Lys, Val-Gly-Ala, Val-Gly-Val or Val-Gly-Thr respectively). […] As a result, these derivatives were eliminated from this study, but will be the subject of further investigation as potential anti-mastitis antimicrobials. […] In the case of the derivatives nisin T2L and nisin HTK, the activity appeared reduced and equivalent to nisin A respectively (Figure 1), while improved activity was observed by both derivatives against S. agalactiae ATCC13813 and S. aureus RF122 (Table 2). On this basis, the nisin derivatives M17Q, T2L and HTK were selected for purification and specific activity assays. Purified peptides were subjected to Mass Spectrometry to confirm the correct mass in each case. In the case of T2L and HTK derivatives, the threonine remained in the unmodified form (data not shown).

[2] = system: L. lactis MG1363; assay: Deferred antagonism assay; settings: producing strain
Description: as §1, §2

[3] = system: S. agalactiae ATCC13813; assay: Deferred antagonism assay; settings: producing strain
Description: as §1, §2

[4] = system: S. aureus RF122; assay: Deferred antagonism assay; settings: producing strain
Description: as §1, §2

[5] = system: Thermus scotoductus SE-1; assay: Agar diffusion assay with cell free supernatant of producing strains; settings: zone diameter relative to Nisin A wild type (100)
Procedure, shortened: (§3)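 Cell-free supernatant (50 µl) from overnight nisin A or variant-producing L. lactis cultures placed in wells of Castenholz agar seeded with indicator strain. Plates incubated 55°C for 3 days; zone of clearance measured, reflecting combined peptide yield and specific activity; triplicate.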

[6] = system: Thermus thermophilus HB27; assay: as above; settings: zone diameter relative to Nisin A wild type (100)
Procedure, shortened: as §3

[7] = system: T. aquaticus; assay: Minimum inhibitory concentration assay (Thermus); settings: pure peptide, mean of triplicate assays
Procedure, shortened: (§4)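 Wells were first blocked with 1% BSA at 37°C for 30 min and washed twice with PBS. Castenholz medium, peptide and cells grown to OD600 ∼0.5 were then added to give ∼10^5 cfu/ml. After 3 days at 55°C, the lowest concentration with no visible growth was scored.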

[8] = system: T. brockianus; assay: Minimum inhibitory concentration assay (Thermus); settings: pure peptide, mean of triplicate assays
Procedure, shortened: as §4

[9] = system: T. oshimai; assay: Minimum inhibitory concentration assay (Thermus); settings: pure peptide, mean of triplicate assays
Procedure, shortened: as §4

[10] = system: T. rehai; assay: Minimum inhibitory concentration assay (Thermus); settings: pure peptide, mean of triplicate assays
Procedure, shortened: as §4

[11] = system: T. scotoductus SE-1; assay: Minimum inhibitory concentration assay (Thermus); settings: pure peptide, mean of triplicate assays
Procedure, shortened: as §4

[12] = system: T. thermophilus HB27; assay: Minimum inhibitory concentration assay (Thermus); settings: pure peptide, mean of triplicate assays
Procedure, shortened: as §4

C=C(NC(=O)[C@@H](NC(=O)[C@H](Cc1c[nH]cn1)NC(=O)[C@@H](NC(=O)[C@H](CO)NC(=O)[C@@H]1CS[C@@H](C)[C@H]2NC(=O)[C@H](C)NC(=O)[C@H](NC(=O)[C@H](C)NC(=O)CNC(=O)[C@@H](NC(=O)[C@@H]3CS[C@@H](C)[C@@H](NC(=O)[C@H](CCCCN)NC(=O)[C@@H]4CS[C@@H](C)[C@@H](NC(=O)[C@@H]5CSC[C@@H](NC(=O)/C(=C/C)NC(=O)[C@@H](N)[C@@H](C)CC)C(=O)N[C@@H]([C@@H](C)CC)C(=O)NC(=C)C(=O)N[C@@H](CC(C)C)C(=O)N5)C(=O)N5CCC[C@H]5C(=O)NCC(=O)N4)C(=O)NCC(=O)N[C@@H](C)C(=O)N[C@@H](CC(C)C)C(=O)N[C@@H](CCSC)C(=O)NCC(=O)N3)C(C)C)[C@H](C)SC[C@H](NC2=O)C(=O)N[C@@H](Cc2c[nH]cn2)C(=O)N1)[C@@H](C)CC)C(C)C)C(=O)N[C@@H](CCCCN)C(=O)O [VGA, nisin VGA]
zone of inhibition (area of the zone of inhibition minus the area of the spot) [1]: 362.16 ± 6.77 mm2 | zone of inhibition (area of the zone of inhibition minus the area of the spot) [2]: 230.92 ± 4.04 mm2 | zone of inhibition (area of the zone of inhibition minus the area of the spot) [3]: 234.96 ± 25.45 mm2 | zone of inhibition (area of the zone of inhibition minus the area of the spot) [4]: 138.17 ± 8.12 mm2 | % of wild type [5]: 127* (0.022) % | % difference [6]: 169* (0.0002) % | MIC [7]: 0.0156 µM (≈ 0.05 µg/mL) | MIC [8]: 0.125 µM (≈ 0.401 µg/mL) | MIC [9]: 0.0156 µM (≈ 0.05 µg/mL) | MIC [10]: 0.125 µM (≈ 0.401 µg/mL) | MIC [11]: 0.125 µM (≈ 0.401 µg/mL) | MIC [12]: 0.0312 µM (≈ 0.1 µg/mL)
